Laboratory results from ChEMBL document CHEMBL1201862, “PubChem BioAssay data set” (2004).
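Exposure lasted 48 hours, with cells grown in 96-well plates and compounds tested at five concentrations. GI50: concentration for 50% inhibition of growth.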 Active and inactive are the calls of the source. No stated cut-off is given here; in the data, active = GI50 up to about 1.1 µM and inactive = higher.

Legend:
Assay in all cases: NCI anticancer screen, dose series, 48 h
NCI-H23 = tested on: NCI-H23
DU-145 = tested on: DU-145
A498 = tested on: A498
U-251 = tested on: U-251
OVCAR-5 = tested on: OVCAR-5
HCT-15 = tested on: HCT-15
LOX IMVI = tested on: LOX IMVI
BT-549 = tested on: BT-549
HCT-116 = tested on: HCT-116
IGROV-1 = tested on: IGROV-1
MOLT-4 = tested on: MOLT-4
PC-3 = tested on: PC-3
RXF 393 = tested on: RXF 393
SK-MEL-2 = tested on: SK-MEL-2
OVCAR-3 = tested on: OVCAR-3
NCI-H460 = tested on: NCI-H460
K562 = tested on: K562
NCI-H226 = tested on: NCI-H226
Malme-3M = tested on: Malme-3M
MDA-N = tested on: MDA-N

Measured: GI50

COc1ccc(-n2c(=O)c3nc[nH]c3n(-c3ccc(OC)cc3)c2=S)cc1
inactive: NCI-H23 > 100 µM | DU-145 > 100 µM | A498 > 100 µM | U-251 > 100 µM | OVCAR-5 > 100 µM | LOX IMVI > 100 µM | BT-549 > 100 µM | HCT-116 > 100 µM | IGROV-1 > 100 µM | MOLT-4 > 100 µM | PC-3 > 100 µM | RXF 393 > 100 µM | SK-MEL-2 > 100 µM | OVCAR-3 > 100 µM | NCI-H460 > 100 µM | K562 > 100 µM | NCI-H226 > 100 µM
> 100 µM: HCT-15

CN(/N=C\c1ccc2ccccc2c1)C1=NCCCN1
inactive: NCI-H23 25.9 µM | DU-145 27.4 µM | A498 13.6 µM | U-251 20 µM | Malme-3M 13.3 µM | OVCAR-5 28.1 µM | LOX IMVI 7.41 µM | BT-549 1.87 µM | HCT-116 13.8 µM | IGROV-1 4.56 µM | MOLT-4 2.39 µM | RXF 393 14.3 µM | SK-MEL-2 15.2 µM | OVCAR-3 18.9 µM | NCI-H460 4.7 µM | K562 11.7 µM | NCI-H226 17 µM
17.7 µM: HCT-15

O=C(O)CN1CCN(CC(=O)N2CCN(C(=O)OCc3ccccc3)CC2)CCN(CC(=O)O)CCN(CC(=O)N2CCN(C(=O)OCc3ccccc3)CC2)CC1
inactive: DU-145 > 100 µM | A498 > 100 µM | U-251 > 100 µM | Malme-3M > 100 µM | OVCAR-5 > 100 µM | LOX IMVI > 100 µM | BT-549 > 100 µM | HCT-116 > 100 µM | IGROV-1 > 100 µM | MOLT-4 > 100 µM | PC-3 > 100 µM | SK-MEL-2 > 100 µM | OVCAR-3 > 100 µM | NCI-H460 > 100 µM | K562 > 100 µM | NCI-H226 > 100 µM
> 100 µM: HCT-15

CCCCN(CC)C(=O)C(=O)C1C(=O)Nc2ccccc2[S+]1[O-] (stereo not given)
inactive: NCI-H23 > 100 µM | A498 > 100 µM | U-251 > 100 µM | Malme-3M > 100 µM | OVCAR-5 > 100 µM | LOX IMVI > 100 µM | HCT-116 > 100 µM | IGROV-1 > 100 µM | MOLT-4 > 100 µM | RXF 393 > 100 µM | SK-MEL-2 > 100 µM | OVCAR-3 > 100 µM | NCI-H460 > 100 µM | K562 > 100 µM | NCI-H226 > 100 µM
> 100 µM: HCT-15

O=C(Nc1ccc(C(F)(F)F)cc1[N+](=O)[O-])C(=O)C(C(=O)c1ccc2ccccc2c1)C1OC(=O)c2ccccc21 (stereo not given)
inactive: NCI-H23 5.31 µM | A498 4.09 µM | U-251 4.41 µM | Malme-3M 11.6 µM | OVCAR-5 13.3 µM | LOX IMVI 6.38 µM | HCT-116 4.36 µM | IGROV-1 19.5 µM | MOLT-4 2.26 µM | RXF 393 2.94 µM | SK-MEL-2 13 µM | OVCAR-3 12.8 µM | NCI-H460 3.81 µM | K562 5.57 µM
8.81 µM: HCT-15
active: NCI-H226 0.681 µM

C=C1C(=O)O[C@H]2/C=C(/C)C3=CC(=O)[C@@](C)(C[C@@H](OC(=O)/C(C)=C\C)C12)O3 (stereo not given in full)
inactive: NCI-H23 2.42 µM | DU-145 2.58 µM | A498 5.2 µM | U-251 2.43 µM | OVCAR-5 2.4 µM | MOLT-4 1.87 µM | PC-3 2.48 µM | SK-MEL-2 3.02 µM | NCI-H460 2.35 µM | NCI-H226 2.59 µM
active: MDA-N 0.684 µM | LOX IMVI 0.272 µM | HCT-116 0.377 µM | IGROV-1 0.971 µM | RXF 393 0.265 µM | K562 0.154 µM
0.216 µM: HCT-15

O=c1cc(O)cc2n1CCC2
inactive: A498 > 100 µM | U-251 > 100 µM | Malme-3M > 100 µM | OVCAR-5 > 100 µM | LOX IMVI > 100 µM | HCT-116 > 100 µM | IGROV-1 > 100 µM | MOLT-4 > 100 µM | RXF 393 > 100 µM | SK-MEL-2 > 100 µM | OVCAR-3 > 100 µM | NCI-H460 > 100 µM | K562 > 100 µM | NCI-H226 > 100 µM
> 100 µM: HCT-15

CN(C)N1C(=C(C#N)C#N)C(c2ccccc2)CC1C#N (stereo not given)
> 100 µM: HCT-15
inactive: NCI-H23 > 100 µM | DU-145 > 100 µM | A498 > 100 µM | MDA-N > 100 µM | U-251 > 100 µM | Malme-3M > 100 µM | OVCAR-5 > 100 µM | LOX IMVI > 100 µM | HCT-116 > 100 µM | IGROV-1 > 100 µM | MOLT-4 > 100 µM | PC-3 > 100 µM | RXF 393 > 100 µM | SK-MEL-2 > 100 µM | K562 > 100 µM | NCI-H226 > 100 µM

Cc1cc(O)nc(CNC(=O)Cc2ccccc2)n1
inactive: NCI-H23 > 100 µM | A498 > 100 µM | Malme-3M > 100 µM | OVCAR-5 > 100 µM | LOX IMVI > 100 µM | IGROV-1 > 100 µM | MOLT-4 > 100 µM | RXF 393 > 100 µM | SK-MEL-2 > 100 µM | OVCAR-3 > 100 µM | NCI-H460 > 100 µM | K562 > 100 µM | NCI-H226 > 100 µM
> 100 µM: HCT-15

CCCCNC(=O)NNC(=O)c1cc(/C=C/c2cccc([N+](=O)[O-])c2)ncn1
87.3 µM: HCT-15
inactive: NCI-H23 > 100 µM | A498 > 100 µM | U-251 21.1 µM | Malme-3M > 100 µM | OVCAR-5 > 100 µM | LOX IMVI 34.2 µM | HCT-116 20 µM | IGROV-1 > 100 µM | MOLT-4 > 100 µM | RXF 393 > 100 µM | SK-MEL-2 > 100 µM | OVCAR-3 > 100 µM | NCI-H460 > 100 µM | K562 > 100 µM | NCI-H226 > 100 µM

CC(=O)OCC1OC(n2c(-c3ccccc3)c(C(C)=O)c(-c3cccc4ccccc34)c(C#N)c2=S)C(OC(C)=O)C(OC(C)=O)C1OC(C)=O (stereo not given)
> 100 µM: HCT-15
inactive: NCI-H23 > 100 µM | DU-145 > 100 µM | A498 > 100 µM | MDA-N > 100 µM | U-251 > 100 µM | Malme-3M > 100 µM | OVCAR-5 > 100 µM | LOX IMVI > 100 µM | HCT-116 > 100 µM | IGROV-1 > 100 µM | MOLT-4 > 100 µM | PC-3 62.2 µM | RXF 393 > 100 µM | SK-MEL-2 > 100 µM | OVCAR-3 > 100 µM | NCI-H460 > 100 µM | K562 > 100 µM | NCI-H226 > 100 µM

COc1cc2ccc3c4cc(OC)c(OC)cc4c[n+](C)c3c2cc1O
> 100 µM: HCT-15
inactive: NCI-H23 37.1 µM | A498 > 24.4 µM | U-251 6.37 µM | Malme-3M > 100 µM | OVCAR-5 > 100 µM | LOX IMVI > 73.8 µM | HCT-116 > 100 µM | IGROV-1 > 100 µM | MOLT-4 > 100 µM | RXF 393 > 100 µM | SK-MEL-2 > 100 µM | OVCAR-3 67.5 µM | NCI-H460 > 26.7 µM | K562 > 83.4 µM | NCI-H226 9.16 µM

Cc1ccnc(NS(=O)(=O)c2ccc(NC3=CC(=O)C(=O)c4ccccc43)cc2)n1
inactive: NCI-H23 > 100 µM | A498 > 100 µM | U-251 > 100 µM | Malme-3M > 100 µM | OVCAR-5 > 100 µM | LOX IMVI > 100 µM | HCT-116 > 100 µM | IGROV-1 > 100 µM | MOLT-4 > 100 µM | RXF 393 > 100 µM | SK-MEL-2 > 100 µM | OVCAR-3 > 100 µM | NCI-H460 > 100 µM | K562 > 100 µM | NCI-H226 > 100 µM
> 100 µM: HCT-15

O=C(N/N=C/c1cccc(O)c1O)N/N=C/c1cccc(O)c1O
8.45 µM: HCT-15
inactive: NCI-H23 25.2 µM | A498 32.1 µM | U-251 12.3 µM | Malme-3M 22.4 µM | OVCAR-5 22.2 µM | LOX IMVI 18.7 µM | HCT-116 5.02 µM | IGROV-1 48.1 µM | MOLT-4 5.38 µM | RXF 393 19 µM | SK-MEL-2 24 µM | OVCAR-3 2.51 µM | NCI-H460 30.1 µM | K562 6.97 µM | NCI-H226 23.4 µM

CCOC(=O)C1C(C)C2(C#N)C(=N)OC1(C)C2(C#N)C#N (stereo not given)
12.5 µM: HCT-15
inactive: NCI-H23 60 µM | DU-145 78.5 µM | A498 > 100 µM | MDA-N 46.1 µM | U-251 69.2 µM | Malme-3M 77.3 µM | OVCAR-5 > 100 µM | LOX IMVI 26.8 µM | HCT-116 76.7 µM | IGROV-1 39.2 µM | PC-3 > 100 µM | RXF 393 25.8 µM | SK-MEL-2 58.2 µM | K562 39.4 µM | NCI-H226 73.8 µM

Cn1c(C(C)(C)OC(=O)Oc2ccccc2)cnc1[N+](=O)[O-]
inactive: NCI-H23 > 100 µM | DU-145 > 100 µM | A498 > 100 µM | U-251 > 100 µM | Malme-3M 32.3 µM | OVCAR-5 > 100 µM | BT-549 > 100 µM | HCT-116 92.5 µM | IGROV-1 55.6 µM | MOLT-4 16.7 µM | PC-3 > 100 µM | RXF 393 > 100 µM | SK-MEL-2 > 100 µM | OVCAR-3 93.5 µM | NCI-H460 80.9 µM | K562 59.2 µM | NCI-H226 36.6 µM
> 100 µM: HCT-15
